Test results reported in PubChem BioAssay AID1963965 (Molecular Pharmacology Branch, DTP, NCI, 2024).

Tested on: 996289-038-R-J1-PDC spheroid viability
Experiment: Anticancer human tumor 996289-038-R-J1-PDC patient-derived colon adenocarcinoma cell line growth inhibition [PI3K]
Details: spheroids with HUVEC and MSC; for IC50: curve of first compound; for viability, T/C: stronger effect = lower value
Method in brief: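 Three cell types, namely tumor cells, endothelial cells and mesenchymal stem cells, formed each spheroid. Combinations with four PI3K inhibitors were screened at clinically achievable concentrations decreasing by half-log, and spheroid viability was recorded.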
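Note: spheroids exposed to compounds for seven days before viability read.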
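Throughout, for viability, T/C: luminescence used as a proxy for viable cell amount; percent viability relative to DMSO vehicle control as 100%.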

`Cn1cnc2c(F)c(Nc3ccc(Br)cc3Cl)c(C(=O)NOCCO)cc21` + Cc1nc(NC(=O)N2CCCC2C(N)=O)sc1-c1ccnc(C(C)(C)C(F)(F)F)c1 was tested, and the IC50 (second compound 0.0316 µM) was 148 nM, the IC50 (second compound 0.1 µM) was 114 nM and the IC50 (second compound 0.316 µM) was 59.4 nM. The IC50 (second compound 1 µM) was 24.8 nM, the IC50 (second compound 3.16 µM) was 13.5 nM and the IC50 (second compound 10 µM) was less than 9.49 nM. The viability, T/C (second compound 0.0316 µM, first compound 0.00949 µM) was 73%, the viability, T/C (second compound 0.0316 µM, first compound 0.03 µM) was 64.4% and the viability, T/C (second compound 0.0316 µM, first compound 0.0949 µM) was 54.4%. For the same molecule, the viability, T/C (second compound 0.0316 µM, first compound 0.3 µM) was 42.5%, the viability, T/C (second compound 0.0316 µM, first compound 0.949 µM) was 33.8% and the viability, T/C (second compound 0.0316 µM, first compound 3 µM) was 23.6%. For the same molecule, the viability, T/C (second compound 0.1 µM, first compound 0.00949 µM) was 76.7%, the viability, T/C (second compound 0.1 µM, first compound 0.03 µM) was 70.4% and the viability, T/C (second compound 0.1 µM, first compound 0.0949 µM) was 48.6%. For the same molecule, the viability, T/C (second compound 0.1 µM, first compound 0.3 µM) was 38.6%, the viability, T/C (second compound 0.1 µM, first compound 0.949 µM) was 30.4% and the viability, T/C (second compound 0.1 µM, first compound 3 µM) was 20.5%. The viability, T/C (second compound 0.316 µM, first compound 0.00949 µM) was 76.2%, the viability, T/C (second compound 0.316 µM, first compound 0.03 µM) was 60.6% and the viability, T/C (second compound 0.316 µM, first compound 0.0949 µM) was 41.9%. The viability, T/C (second compound 0.316 µM, first compound 0.3 µM) was 32%, the viability, T/C (second compound 0.316 µM, first compound 0.949 µM) was 26.5% and the viability, T/C (second compound 0.316 µM, first compound 3 µM) was 20.1%. For the same molecule, the viability, T/C (second compound 1 µM, first compound 0.00949 µM) was 58.2%, the viability, T/C (second compound 1 µM, first compound 0.03 µM) was 50.5% and the viability, T/C (second compound 1 µM, first compound 0.0949 µM) was 35.3%. For the same molecule, the viability, T/C (second compound 1 µM, first compound 0.3 µM) was 29.4%, the viability, T/C (second compound 1 µM, first compound 0.949 µM) was 22.1% and the viability, T/C (second compound 1 µM, first compound 3 µM) was 14.8%. It also gave a viability, T/C (second compound 3.16 µM, first compound 0.00949 µM) of 55.3%, a viability, T/C (second compound 3.16 µM, first compound 0.03 µM) of 39.1% and a viability, T/C (second compound 3.16 µM, first compound 0.0949 µM) of 30.1%. It also gave a viability, T/C (second compound 3.16 µM, first compound 0.3 µM) of 22.2%, a viability, T/C (second compound 3.16 µM, first compound 0.949 µM) of 16.8% and a viability, T/C (second compound 3.16 µM, first compound 3 µM) of 8.81%. The viability, T/C (second compound 10 µM, first compound 0.00949 µM) was 31.3%, the viability, T/C (second compound 10 µM, first compound 0.03 µM) was 24.8% and the viability, T/C (second compound 10 µM, first compound 0.0949 µM) was 19.1%. For the same molecule, the viability, T/C (second compound 10 µM, first compound 0.3 µM) was 14%, the viability, T/C (second compound 10 µM, first compound 0.949 µM) was 9.2% and the viability, T/C (second compound 10 µM, first compound 3 µM) was 5.22%.

In the case of `C=CC(=O)N1CCN(c2nc(=O)n(-c3c(C)ccnc3C(C)C)c3nc(-c4c(O)cccc4F)c(F)cc23)C(C)C1` (centres undefined) + CC(Nc1ccc2c(c1)OCCn1cc(N3C(=O)OCC3C(F)F)nc1-2)C(N)=O, the IC50 (second compound 0.00316 µM) is reported as greater than 10000 nM, the IC50 (second compound 0.01 µM) is reported as greater than 10000 nM and the IC50 (second compound 0.0316 µM) is reported as greater than 10000 nM. For the same molecule, the IC50 (second compound 0.1 µM) was greater than 10000 nM, the IC50 (second compound 0.316 µM) was greater than 10000 nM and the IC50 (second compound 1 µM) was greater than 10000 nM. It also gave a viability, T/C (second compound 0.00316 µM, first compound 0.0316 µM) of 91.2%, a viability, T/C (second compound 0.00316 µM, first compound 0.1 µM) of 92.7% and a viability, T/C (second compound 0.00316 µM, first compound 0.316 µM) of 106%. It also gave a viability, T/C (second compound 0.00316 µM, first compound 1 µM) of 112%, a viability, T/C (second compound 0.00316 µM, first compound 3.16 µM) of 113% and a viability, T/C (second compound 0.00316 µM, first compound 10 µM) of 106%. It also gave a viability, T/C (second compound 0.01 µM, first compound 0.0316 µM) of 97.8%, a viability, T/C (second compound 0.01 µM, first compound 0.1 µM) of 96.7% and a viability, T/C (second compound 0.01 µM, first compound 0.316 µM) of 112%. It also gave a viability, T/C (second compound 0.01 µM, first compound 1 µM) of 100%, a viability, T/C (second compound 0.01 µM, first compound 3.16 µM) of 118% and a viability, T/C (second compound 0.01 µM, first compound 10 µM) of 118%. For the same molecule, the viability, T/C (second compound 0.0316 µM, first compound 0.0316 µM) was 88.7%, the viability, T/C (second compound 0.0316 µM, first compound 0.1 µM) was 106% and the viability, T/C (second compound 0.0316 µM, first compound 0.316 µM) was 95.3%. For the same molecule, the viability, T/C (second compound 0.0316 µM, first compound 1 µM) was 105%, the viability, T/C (second compound 0.0316 µM, first compound 3.16 µM) was 97.3% and the viability, T/C (second compound 0.0316 µM, first compound 10 µM) was 98.8%. It also gave a viability, T/C (second compound 0.1 µM, first compound 0.0316 µM) of 87.5%, a viability, T/C (second compound 0.1 µM, first compound 0.1 µM) of 81.9% and a viability, T/C (second compound 0.1 µM, first compound 0.316 µM) of 87.8%. It also gave a viability, T/C (second compound 0.1 µM, first compound 1 µM) of 98.9%, a viability, T/C (second compound 0.1 µM, first compound 3.16 µM) of 85.4% and a viability, T/C (second compound 0.1 µM, first compound 10 µM) of 83%. The viability, T/C (second compound 0.316 µM, first compound 0.0316 µM) was 79.4%, the viability, T/C (second compound 0.316 µM, first compound 0.1 µM) was 67.7% and the viability, T/C (second compound 0.316 µM, first compound 0.316 µM) was 75.1%. The viability, T/C (second compound 0.316 µM, first compound 1 µM) was 80.9%, the viability, T/C (second compound 0.316 µM, first compound 3.16 µM) was 77.1% and the viability, T/C (second compound 0.316 µM, first compound 10 µM) was 77.7%. The viability, T/C (second compound 1 µM, first compound 0.0316 µM) was 82.2%, the viability, T/C (second compound 1 µM, first compound 0.1 µM) was 50.2% and the viability, T/C (second compound 1 µM, first compound 0.316 µM) was 60.2%. For the same molecule, the viability, T/C (second compound 1 µM, first compound 1 µM) was 59.1%, the viability, T/C (second compound 1 µM, first compound 3.16 µM) was 62.6% and the viability, T/C (second compound 1 µM, first compound 10 µM) was 67.7%.
